One assay deals with NMDA-induced seizure. The assay can be described thus: NMDA-induced seizure model. The following applies: Mus musculus, ip, 0.5 h; mice; test compound intraperitoneal 30 min before NMDA (5 nmol) i.c.v.; ten mice; read-out: ED50, inhibition of NMDA-induced tonic seizures. Format: in vivo. The protocol: The compounds of the present invention attenuated strongly NMDA-induced seizure under systemic administrations in the following in vivo model.
NMDA-induced seizure model
Thirty min later following intraperitoneal administration of the test compound (0.3~30 mg/kg) into each of ten mice tested, NMDA (5 nmol) was administered intracerebroventricularly (i.c.v.). […] The activity of the test compound may be shown by the ED50 value.

Assay [1] concerns strychnine-insensitive glycine modulatory site of NMDA (N-methyl D-aspartate) receptors. To be noted: 0.1 mM; rat brain synaptic membrane preparation.
Method: The activities of the compounds were measured by [^3 H] DCKA and [^3 H] glycine binding inhibition studies as illustrated below.
[^3 H] glycine binding studies
A crude rat brain synaptic membrane preparation was washed three times by centrifugation at 50,000×g for 30 min with 50 mM tris acetate (pH 7.4). The pellets obtained were suspended in 0.23M sucrose solution and stored at -80° C. For binding studies, the frozen suspension was thawed, treated with 0.08% triton X-100 at 2° C. for 10 min, and washed twice by the centrifugation as mentioned above. The synaptic membrane thus prepared (ca. 150~200 μg of protein) was incubated with 10 nM [^3 H] glycine (1.11 TBq/mmol) and the test compound (10 ng/mL~0.1 ng/mL) at 2° C. for 10 min in 50 mM tris acetate (pH 7.4). The incubation was terminated by suction filtration using Whatman GF/B glass filter. The radioactivities bound to the membrane on the filter was measured by scintillation counting. Non-specific binding was calculated by the radioactivities measured under the incubations in the presence of 0.1 mM D-serine.

A word on the ED50: it is the dose that gives a 50% effect, or the effect in half of the subjects. In the case of `Cl.NCc1ccc(NC(=O)C[C@@H]2CCc3cc(Cl)cc4[nH]c(=O)c(=O)n2c34)c(CC(=O)O)c1` [Example 11, (S)-9-Chloro-5-[p-aminomethyl-o-(carboxymethyl)phenylcarbamoylmethyl]-6,7-dihydro-1H, 5H-pyrido[1,2,3-de]quinoxaline-2,3-dione hydrochloride], in the assay with NMDA-induced seizure, the ED50 is 3.1 mg/kg. `Cl.NCc1ccc(NC(=O)C[C@@H]2CCc3cc(Cl)cc4[nH]c(=O)c(=O)n2c34)c(OCC(=O)O)c1` [Example 31, (S)-9-Chloro-5-[p-aminomethyl-o-(carboxymethoxy)phenylcarbamoylmethyl]-6,7-dihydro-1H, 5H-pyrido[1,2,3-de]quinoxaline-2,3-dione hydrochloride]: the ED50 in the assay with NMDA-induced seizure was determined as 1 mg/kg.

Turning to `Cl.NCc1ccc(NC(=O)C[C@@H]2CCc3cc(Br)cc4[nH]c(=O)c(=O)n2c34)c(OCC(=O)O)c1` [Example 35, (S)-9-Bromo-5-[p-aminomethyl-o-(carboxymethoxy)phenylcarbamoylmethyl]6,7-dihydro-1H, 5H-pyrido[1,2,3-de]quinoxaline-2,3-dione hydrochloride], in the assay with NMDA-induced seizure, the ED50 turned out to be 2.1 mg/kg. With `O=C1C[C@@H]2OCC=C3CN4CC[C@]56c7ccccc7N1[C@H]5[C@H]2[C@H]3C[C@H]46` [strychnine], in assay [1], the “inhibition of [3H] glycine binding” value was “not inhibited”.

Values taken from US5719152A, “Tricyclic quinoxalinedione derivatives” (Sumitomo Pharmaceuticals Co., Ltd., priority 1993, dated 1998).
